# Earlier results in patent US20220226232A1, “Dental formulation comprising xylitol and propolis” (SERVIDENCE INC., priority 2021, published 2022).
# Conditions: oral exposition
smiles,measurement,value
OC[C@@H](O)[C@H](O)[C@@H](O)CO [xylitol],prevention of otitis,20%
